Measurements from patent US4167580A, “Compositions and method of use to treat arthritic disease with m-fluorobenzimidoylacetonitrile” (American Cyanamid Company, priority 1978, dated 1979).

Columns and labels:
Erythema in Guinea Pigs = assay: Ultraviolet induced erythema in guinea pigs, topical application; assay type: in vivo, Albino guinea pigs
Experimental: Albino guinea pigs were depilitated on their flanks, the evening before testing, with a standard mixture of barium sulfide and gum acacia. On the morning of the test at 0 hour they were restrained in a plastic container which allows exposure of 3 circular spots. They were then exposed to ultraviolet irradiation from a "Hanovia" Kromayer lamp, model 10, for 60 seconds. Immediately after exposure to ultraviolet light, the guinea pigs were treated by dissolving the test compound in ethyl alcohol at various concentrations and swabbing the UV exposed areas with the aid of a cottom tipped applicator stick. At one and four hours, the degree of erythema for each of the three sites was assessed according to the following scoring system: 0=no erythema, 0.5=incomplete circle or faint erythema and 1.0=complete circle of distinct erythema. Thus, the maximum score for each animal was 3.0.

[1] = tested on: Body Temperature of Pyretic Rats; assay: Body temperature in yeast induced pyrexia; assay type: in vivo, Royal Hart, Wistar strain rats; settings: 250 mg./kg. by gavage 17 hours after yeast; measured 19 hours post challenge
Experimental: The effect of benzimidoylacetonitrile on body temperature in yeast induced pyrexia was determined by the following procedure. Groups of three Royal Hart, Wistar strain rats weighing 80±5 grams were injected subcutaneously in the nape of the neck with 0.6 ml. of a 40% suspension of dried brewers yeast in distilled water. […] At 19 hours post challenge the rectal temperature of each rat was measured with an electric thermometer. Each dose response experiment was replicated one or more times.

[2] = tested on: Carrageenin Induced Edema of the Rat Paw; assay: Carrageenin induced edema of the rat paw (acute anti-inflammatory activity); assay type: in vivo, Royal Hart, Wistar strain rats; settings: 250 mg./kg. by gavage, 5 hours after drug (4 hours after carrageenin)
Experimental: In determining the acute anti-inflammatory activity of benzimidoylacetonitrile, Royal Hart, Wistar strain rats ranging in weight from 80 to 90 grams were used. The rats were fasted overnight prior to dosing but had free access to water. The compound was administered in aqueous suspension, by gavage, in a volume of 1.7 ml. per 50 grams of rat [corresponds by hydration volume used by Winter et al., Proc. Soc. […] The phlogistic agent used was carrageenin prepared as a sterile 1% suspension in 0.9% aqueous sodium chloride for routine testing. A volume of 0.05 ml. was injected through a 26 gauge needle into the planter tissue of the right hind paw. Measurements were made 5 hours after drug administration (4 hours after carrageenin challenge). Volumes of both the normal and carrageenin inflamed feet were determined. The difference between the two measurements is considered to be the increased edema due to the carrageenin administration.

[3] = tested on: Adjuvant Arthritis in Rats; assay: Adjuvant induced arthritis in rats (chronic inflammation with joint destruction); assay type: in vivo, Royal Hart, Wistar strain rats; settings: for % Inhibition of Control Grade (secondary lesion), Day 14 / % Inhibition of Control Grade (secondary lesion), Day 21 / % Inhibition of Swelling (primary lesion), Day 14 / % Inhibition of Swelling (primary lesion), Day 21 / Dead/Treated At 21 Days / Mean Weight Gain, Day 14 / Mean Weight Gain, Day 21: once daily days 0-13
Excerpt: Adjuvant induced experimental polyarthritis is a specific systemic disease of the rat which shares interesting similarities with rheumatoid arthritis. Specifically, the histology of the two diseases bears a remarkable resemblance as shown by C. M. Pearson et al., Am. J. Pathol. 42, 73 (1963). E. M. Glenn, Am. J. Vet. Res. 27 (116), 339 (1966) has classified adjuvant induced polyarthritis as a crippling and permanent deformity resulting from diffuse connective tissue involvement around certain susceptible joints in the rat. Zahiri et al., Can. Med. Ass. J. 101, 269 (1969) have shown that the fusiform swelling of the distal joints is associated with edema, congestion and synovitis including pannus formation, all of which precede the ultimate destruction of bone and cartilage. Furthermore, Zahiri et al. indicate that the cartilage destruction in the joint is due to an invasive pannus which originates in the marginal synovium and extends across the articular surface to erode it. […] See S. Wong et al., J. Pharm. & Exptl. Ther. 185, 127 (1973) and G. R. Bobalick et al., Agents & Actions 4, 364 (1974). In a similar manner, inhibition of the progress of arthritis in paws of rats treated with the compounds of this invention also lessens associated joint deterioration.
Groups of three Royal Hart, Wistar strain rats weighing 200±10 grams each were injected intradermally in the right hind paw with Freund's adjuvant (dried human tubercle bacilli in a mineral oil vehicle) at a dose of 2 mg./kg. of body weight. Test compounds were administered orally in a 1.5% staruh vehicle at various doses once daily on days 0 through 13 post challenge. Control rats were treated in a similar manner, but given only starch vehicle. On the 14th and 21st day post challenge the diameter of the injected paw (primary lesion) was measured by micrometer caliper. The volume of inflamed paws were estimated from these measurements and the results are expressed as percent inhibition of swelling as compared to controls. At the same time, the other inflamed sites, such as ears, paws and tail (secondary lesions) were observed and each rat was graded as to degree of inflammation and swelling present. The grading is based on a scale of 0 to 24, where 0 represents a complete absence of induced arthritic nodules and 24 represents the maximum degree of inflammation. The mean grade for each treated group is calculated and the effects of each compound are expressed as percent inhibition of the control grade. Table III records the results of these tests conducted with benzimidoylacetonitrile, m-fluorobenzimidoylacetonitrile and p-fluorobenzimidoylacetonitrile and known anti-inflammatory agents. The active compounds of the present invention suppress the progression of the arthritis and associated joint deterioration. Of particular interest is the low mortality observed with benzimidoylacetonitrile treated rats relative to either controls or rats treated with standard compounds.

[4] = 1% in ethyl alcohol, maximum score 3.0, ethyl alcohol control 2.5
[5] = 1% in ethyl alcohol, maximum score 3.0, ethyl alcohol control 3.0

SMILES	Erythema Score (Avg.) 1 Hr. (Erythema in Guinea Pigs; [4])	Erythema Score (Avg.) 4 Hr. (Erythema in Guinea Pigs; [5])	Decrease In Body Temp. [1] [°C]	C/T Edema Ratio (edema of control animals/edema of treated animals) [2]	% Inhibition of Control Grade (secondary lesion), Day 14 ([3]; 50 mg./kg. oral) [%]	% Inhibition of Control Grade (secondary lesion), Day 21 ([3]; 50 mg./kg. oral) [%]	% Inhibition of Swelling (primary lesion), Day 14 ([3]; 50 mg./kg. oral) [%]	% Inhibition of Swelling (primary lesion), Day 21 ([3]; 50 mg./kg. oral) [%]	Dead/Treated At 21 Days ([3]; 50 mg./kg. oral)	Mean Weight Gain, Day 14 ([3]; 50 mg./kg. oral) [grams]	Mean Weight Gain, Day 21 ([3]; 50 mg./kg. oral) [grams]	% Inhibition of Control Grade (secondary lesion), Day 14 ([3]; 100 mg./kg. oral) [%]	% Inhibition of Control Grade (secondary lesion), Day 21 ([3]; 100 mg./kg. oral) [%]	% Inhibition of Swelling (primary lesion), Day 14 ([3]; 100 mg./kg. oral) [%]	% Inhibition of Swelling (primary lesion), Day 21 ([3]; 100 mg./kg. oral) [%]	Dead/Treated At 21 Days ([3]; 100 mg./kg. oral)	Mean Weight Gain, Day 14 ([3]; 100 mg./kg. oral) [grams]	Mean Weight Gain, Day 21 ([3]; 100 mg./kg. oral) [grams]	% Inhibition of Control Grade (secondary lesion), Day 14 ([3]; 25 mg./kg. oral) [%]	% Inhibition of Control Grade (secondary lesion), Day 21 ([3]; 25 mg./kg. oral) [%]	further results
CC(=O)Oc1ccccc1C(=O)O [Aspirin]	1.9	2.8	1.5	2.8	12	9	23	3	2/21	56	44	19	8	36	13	18/63	48	53			% Inhibition of Control Grade (secondary lesion), Day 14 ([3]; 200 mg./kg. oral): 26%; % Inhibition of Control Grade (secondary lesion), Day 21 ([3]; 200 mg./kg. oral): 17%; % Inhibition of Swelling (primary lesion), Day 14 ([3]; 200 mg./kg. oral): 48%; % Inhibition of Swelling (primary lesion), Day 21 ([3]; 200 mg./kg. oral): 27%; Dead/Treated At 21 Days ([3]; 200 mg./kg. oral): 10/66; Mean Weight Gain, Day 14 ([3]; 200 mg./kg. oral): 40 grams; Mean Weight Gain, Day 21 ([3]; 200 mg./kg. oral): 44 grams; % Inhibition of Control Grade (secondary lesion), Day 14 ([3]; 400 mg./kg. oral): 58%; % Inhibition of Control Grade (secondary lesion), Day 21 ([3]; 400 mg./kg. oral): 45%; % Inhibition of Swelling (primary lesion), Day 14 ([3]; 400 mg./kg. oral): 73%; % Inhibition of Swelling (primary lesion), Day 21 ([3]; 400 mg./kg. oral): 48%; Dead/Treated At 21 Days ([3]; 400 mg./kg. oral): 19/57; Mean Weight Gain, Day 14 ([3]; 400 mg./kg. oral): 41 grams; Mean Weight Gain, Day 21 ([3]; 400 mg./kg. oral): 55 grams
N#CCC(=N)c1ccccc1 [Benzimidoylacetonitrile, benzimidoylacetonitrile]	1.0	2.8	1.4	2.2	59	48	63	62	1/24	31	49	57	46	68	60	0/15	46	65	33	16	Erythema Score (Avg.) 1 Hr. (Erythema in Guinea Pigs; 2% in ethyl alcohol, maximum score 3.0, control 2.5): 0.6; Erythema Score (Avg.) 4 Hr. (Erythema in Guinea Pigs; 2% in ethyl alcohol, maximum score 3.0, control 3.0): 2.7; % Inhibition of Swelling (primary lesion), Day 14 ([3]; 25 mg./kg. oral): 33%; % Inhibition of Swelling (primary lesion), Day 21 ([3]; 25 mg./kg. oral): 32%; Dead/Treated At 21 Days ([3]; 25 mg./kg. oral): 1/9; Mean Weight Gain, Day 14 ([3]; 25 mg./kg. oral): 41 grams; Mean Weight Gain, Day 21 ([3]; 25 mg./kg. oral): 38 grams; duration of action (in words) ([3]; greater suppression of primary and secondary lesions at the 21 day observation period): longer duration of action than standards; mortality (in words) ([3]; relative to either controls or rats treated with standard compounds): low mortality
N#CCC(=N)c1cccc(F)c1 [m-Fluorobenzimidoylacetonitrile, m-fluorobenzimidoylacetonitrile]							40	7	1/18	64	60										
N#CCC(=N)c1ccc(F)cc1 [p-Fluorobenzimidoylacetonitrile, p-fluorobenzimidoylacetonitrile]					27	8	43	25	4/36	66	57	49	22	53	29	1/18	78	67	14	9	% Inhibition of Swelling (primary lesion), Day 14 ([3]; 25 mg./kg. oral): 26%; % Inhibition of Swelling (primary lesion), Day 21 ([3]; 25 mg./kg. oral): 14%; Dead/Treated At 21 Days ([3]; 25 mg./kg. oral): 2/18; Mean Weight Gain, Day 14 ([3]; 25 mg./kg. oral): 53 grams; Mean Weight Gain, Day 21 ([3]; 25 mg./kg. oral): 50 grams
